Source: patent US12527325B2, “Pesticidally active diazine-amide compounds” (SYNGENTA CROP PROTECTION AG, priority 2019, dated 2026)

Columns and labels:
Type in all cases: in vivo
Euschistus heros = assay: Example B2: Euschistus heros (Neotropical Brown Stink Bug); conditions: 120 h, application rate of 200 ppm, sprayed soybean leaves, N2 nymphs, 5 days after infestation, read-out: control in at least one of the two categories (mortality or growth inhibition)
Description: Example B2: Euschistus heros (Neotropical Brown Stink Bug)
Soybean leaves on agar in 24-well microtiter plates were sprayed with aqueous test solutions prepared from 10′000 ppm DMSO stock solutions. After drying the leaves were infested with N2 nymphs. The samples were assessed for mortality and growth inhibition in comparison to untreated samples 5 days after infestation.

Chilo suppressalis = assay: Example B4: Chilo suppressalis (Striped Rice Stemborer); conditions: 144 h, application rate of 200 ppm, artificial diet, L2 larvae, 6 days after infestation, read-out: control in at least one of the three categories (mortality, anti-feedant or growth inhibition)
Summary of the method: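 Artificial diet was treated with aqueous dilutions made from 10'000 ppm DMSO stocks, dried, then infested with L2 larvae at 6–8 per well. Mortality, antifeedant effect and growth inhibition were assessed against untreated samples 6 days after infestation.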

Plutella xylostella [1] = assay: Example B5: Plutella xylostella (Diamond Back Moth); conditions: 192 h, application rate of 200 ppm, 24-well artificial diet, eggs, 8 days after infestation, read-out: control in at least one of the two categories (mortality or growth inhibition)
Description: Example B5: Plutella xylostella (Diamond Back Moth)
24-well microtiter plates with artificial diet were treated with aqueous test solutions prepared from 10′000 ppm DMSO stock solutions by pipetting. After drying, Plutella eggs were pipetted through a plastic stencil onto a gel blotting paper and the plate was closed with it. The samples were assessed for mortality and growth inhibition in comparison to untreated samples 8 days after infestation.

Myzus persicae [2] = assay: Example B7: Myzus persicae (Green Peach Aphid): Systemic Activity; conditions: 144 h, test rate of 24 ppm, roots of pea seedlings in test solution, 6 days
Description: Example B7: Myzus persicae (Green Peach Aphid): Systemic Activity
Roots of pea seedlings infested with an aphid population of mixed ages were placed directly into aqueous test solutions prepared from 10′000 DMSO stock solutions. The samples were assessed for mortality 6 days after placing seedlings into test solutions.

Myzus persicae [3] = assay: Example B8: Myzus persicae (Green Peach Aphid): Intrinsic Activity; conditions: 120 h, test rate of 12 ppm, 24-well sucrose solution under Parafilm, 5 days after infestation
Description: Example B8: Myzus persicae (Green Peach Aphid): Intrinsic Activity
Test compounds prepared from 10′000 ppm DMSO stock solutions were applied by pipette into 24-well microtiter plates and mixed with sucrose solution. The plates were closed with a stretched Parafilm. A plastic stencil with 24 holes was placed onto the plate and infested pea seedlings were placed directly on the Parafilm. The infested plate was closed with a gel blotting paper and another plastic stencil and then turned upside down. The samples were assessed for mortality 5 days after infestation.

[4] = system: Frankliniella occidentalis; assay: Example B3: Frankliniella occidentalis (Western Flower Thrips): Feeding/Contact Activity; conditions: foliar, 168 h, application rate of 200 ppm, sprayed sunflower leaf discs, population of mixed ages, 7 days after infestation
Description: Example B3: Frankliniella occidentalis (Western Flower Thrips): Feeding/Contact Activity
Sunflower leaf discs were placed on agar in 24-well microtiter plates and sprayed with aqueous test solutions prepared from […] stock solutions. After drying the leaf discs were infested with a Frankliniella population of mixed ages. The samples were assessed for mortality 7 days after infestation.

Myzus persicae [5] = assay: Example B11: Myzus persicae (Green Peach Aphid), 96-well sucrose solution; conditions: 120 h, application rate of 50 ppm, 96-well sucrose solution under Parafilm, 5 days after infestation
Description: Example B11: Myzus persicae (Green Peach Aphid)
Test compounds prepared from 10′000 ppm DMSO stock solutions were applied by a liquid handling robot into 96-well microtiter plates and mixed with a sucrose solution. Parafilm was stretched over the 96-well microtiter plate and a plastic stencil with 96 holes was placed onto the plate. Aphids were sieved into the wells directly onto the Parafilm. The infested plates were closed with a gel blotting card and a second plastic stencil and then turned upside down. The samples were assessed for mortality 5 days after infestation.

Diabrotica balteata = assay: Example B1: Diabrotica balteata (Corn Root Worm); conditions: 96 h, application rate of 200 ppm, sprayed maize sprouts, L2 larvae, 4 days after infestation, read-out: control in at least one of the two categories (mortality or growth inhibition)
Description: Example B1: Diabrotica balteata (Corn Root Worm)
Maize sprouts placed onto an agar layer in 24-well microtiter plates were treated with aqueous test solutions prepared from 10′000 ppm DMSO stock solutions by spraying. After drying, the plates were infested with L2 larvae (6 to 10 per well). The samples were assessed for mortality and growth inhibition in comparison to untreated samples 4 days after infestation.

Plutella xylostella [6] = assay: Example B12: Plutella xylostella (Diamondback Moth), 96-well artificial diet; conditions: 216 h, application rate of 500 ppm, eggs, 9 days after infestation
Description: Example B12: Plutella xylostella (Diamondback Moth)
96-well microtiter plates containing artificial diet were treated with aqueous test solutions, prepared from 10′000 ppm DMSO stock solutions, by a liquid handling robot. After drying, eggs (˜30 per well) were infested onto a netted lid which was suspended above the diet. The eggs hatch and L1 larvae move down to the diet. The samples were assessed for mortality 9 days after infestation.

Spodoptera littoralis = assay: Example B9: Spodoptera littoralis (Egyptian Cotton Leaf Worm), cotton leaf disc spray; conditions: foliar, 72 h, application rate of 200 ppm, sprayed cotton leaf discs, L1 larvae, 3 days after infestation, read-out: control in at least one of the three categories (mortality, anti-feedant or growth inhibition)
Myzus persicae [7] = assay: Example B6: Myzus persicae (Green Peach Aphid): Feeding/Contact Activity; conditions: foliar, 144 h, application rate of 200 ppm, sprayed sunflower leaf discs, aphid population of mixed ages, 6 days after infestation
Description: Example B6: Myzus persicae (Green Peach Aphid): Feeding/Contact Activity
Sunflower leaf discs were placed onto agar in a 24-well microtiter plate and sprayed with aqueous test solutions prepared from 10′000 ppm DMSO stock solutions. After drying, the leaf discs were infested with an aphid population of mixed ages. The samples were assessed for mortality 6 days after infestation.

CC(NC(=O)c1cc(C(F)(F)F)cc(S(=O)(=O)C2CC2)c1)c1nccnc1-c1ncccn1 (stereo not drawn) [P10, 3-cyclopropylsulfonyl-N-[1-(3-pyrimidin-2-ylpyrazin-2-yl)ethyl]-5-(trifluoromethyl) benzamide]
≥ 80%: percent control (mortality or growth inhibition) at 200 ppm (Euschistus heros) | percent control (mortality, anti-feedant effect or growth inhibition) at 200 ppm (Chilo suppressalis) | percent control (mortality or growth inhibition) at 200 ppm (Plutella xylostella [1]) | mortality at 24 ppm (Myzus persicae [2]) | mortality at 12 ppm (Myzus persicae [3]) | mortality at 200 ppm [4]

CC(NC(=O)c1cc(C(F)(F)F)cc(S(=O)(=O)C(F)(F)F)c1)c1nccnc1-c1ncccn1 (stereo not drawn) [P19, N-[1-(3-pyrimidin-2-ylpyrazin-2-yl)ethyl]-3-(trifluoromethyl)-5-(trifluoromethylsulfonyl) benzamide]
≥ 80%: mortality at 50 ppm (Myzus persicae [5]) | percent control (mortality, anti-feedant effect or growth inhibition) at 200 ppm (Chilo suppressalis) | percent control (mortality or growth inhibition) at 200 ppm (Plutella xylostella [1]) | percent control (mortality or growth inhibition) at 200 ppm (Diabrotica balteata) | mortality at 12 ppm (Myzus persicae [3]) | mortality at 500 ppm (Plutella xylostella [6]) | percent control (mortality, anti-feedant effect or growth inhibition) at 200 ppm (Spodoptera littoralis)

CC(NC(=O)c1cc(C(F)(F)F)cc(C2(C#N)CC2)c1)c1nccnc1-c1ccccn1 (stereo not drawn) [P22, 3-(1-cyanocyclopropyl)-N-[1-[3-(2-pyridyl)pyrazin-2-yl]ethyl]-5-(trifluoromethyl) benzamide]
≥ 80%: mortality at 50 ppm (Myzus persicae [5]) | percent control (mortality, anti-feedant effect or growth inhibition) at 200 ppm (Chilo suppressalis) | percent control (mortality or growth inhibition) at 200 ppm (Plutella xylostella [1]) | percent control (mortality or growth inhibition) at 200 ppm (Diabrotica balteata) | mortality at 500 ppm (Plutella xylostella [6]) | percent control (mortality, anti-feedant effect or growth inhibition) at 200 ppm (Spodoptera littoralis)

CC(NC(=O)c1cc(C(F)(F)F)cc(C2(C#N)CC2)c1)c1nccnc1-c1ncccn1 (stereo not drawn) [P25, 3-(1-cyanocyclopropyl)-N-[1-(3-pyrimidin-2-ylpyrazin-2-yl)ethyl]-5-(trifluoromethyl)benzamide]
≥ 80%: percent control (mortality or growth inhibition) at 200 ppm (Euschistus heros) | mortality at 50 ppm (Myzus persicae [5]) | percent control (mortality, anti-feedant effect or growth inhibition) at 200 ppm (Chilo suppressalis) | percent control (mortality or growth inhibition) at 200 ppm (Plutella xylostella [1]) | mortality at 24 ppm (Myzus persicae [2]) | percent control (mortality or growth inhibition) at 200 ppm (Diabrotica balteata) | mortality at 12 ppm (Myzus persicae [3]) | mortality at 500 ppm (Plutella xylostella [6]) | percent control (mortality, anti-feedant effect or growth inhibition) at 200 ppm (Spodoptera littoralis)

CC(NC(=O)c1cc(C(F)(F)F)nc(C2(C#N)CC2)c1)c1nccnc1-c1ccccn1 (stereo not drawn) [P26, 2-(1-cyanocyclopropyl)-N-[1-[3-(2-pyridyl)pyrazin-2-yl]ethyl]-6-(trifluoromethyl)pyridine-4-carboxamide]
≥ 80%: mortality at 50 ppm (Myzus persicae [5]) | percent control (mortality, anti-feedant effect or growth inhibition) at 200 ppm (Chilo suppressalis) | percent control (mortality or growth inhibition) at 200 ppm (Plutella xylostella [1]) | percent control (mortality or growth inhibition) at 200 ppm (Diabrotica balteata) | mortality at 500 ppm (Plutella xylostella [6]) | percent control (mortality, anti-feedant effect or growth inhibition) at 200 ppm (Spodoptera littoralis)

CC(NC(=O)c1cc(C2CC2)nc(C(F)(F)F)c1)c1nccnc1-c1ncccn1 (stereo not drawn) [P31, 2-cyclopropyl-N-[1-(3-pyrimidin-2-ylpyrazin-2-yl)ethyl]-6-(trifluoromethyl)pyridine-4-carboxamide]
≥ 80%: percent control (mortality or growth inhibition) at 200 ppm (Euschistus heros) | percent control (mortality, anti-feedant effect or growth inhibition) at 200 ppm (Chilo suppressalis) | percent control (mortality or growth inhibition) at 200 ppm (Plutella xylostella [1]) | percent control (mortality or growth inhibition) at 200 ppm (Diabrotica balteata) | mortality at 12 ppm (Myzus persicae [3]) | mortality at 200 ppm [4] | percent control (mortality, anti-feedant effect or growth inhibition) at 200 ppm (Spodoptera littoralis)

CC(NC(=O)c1cc(C(F)(F)F)nc(C2(C#N)CC2)c1)c1nccnc1-c1ncccn1 (stereo not drawn) [P32, 2-(1-cyanocyclopropyl)-N-[1-(3-pyrimidin-2-ylpyrazin-2-yl)ethyl]-6-(trifluoromethyl)pyridine-4-carboxamide]
≥ 80%: percent control (mortality or growth inhibition) at 200 ppm (Euschistus heros) | percent control (mortality, anti-feedant effect or growth inhibition) at 200 ppm (Chilo suppressalis) | percent control (mortality or growth inhibition) at 200 ppm (Plutella xylostella [1]) | percent control (mortality or growth inhibition) at 200 ppm (Diabrotica balteata) | mortality at 12 ppm (Myzus persicae [3]) | mortality at 200 ppm [4] | percent control (mortality, anti-feedant effect or growth inhibition) at 200 ppm (Spodoptera littoralis)

CC(NC(=O)c1cc(OC(F)F)cc(C2(C#N)CC2)c1)c1nccnc1-c1ncccn1 (stereo not drawn) [P44, 3-(1-cyanocyclopropyl)-5-(difluoromethoxy)-N-[1-(3-pyrimidin-2-ylpyrazin-2-yl)ethyl]benzamide]
≥ 80%: mortality at 200 ppm (Myzus persicae [7]) | percent control (mortality or growth inhibition) at 200 ppm (Euschistus heros) | percent control (mortality, anti-feedant effect or growth inhibition) at 200 ppm (Chilo suppressalis) | percent control (mortality or growth inhibition) at 200 ppm (Plutella xylostella [1]) | mortality at 24 ppm (Myzus persicae [2]) | percent control (mortality or growth inhibition) at 200 ppm (Diabrotica balteata) | mortality at 12 ppm (Myzus persicae [3]) | mortality at 200 ppm [4] | percent control (mortality, anti-feedant effect or growth inhibition) at 200 ppm (Spodoptera littoralis)

CC(NC(=O)c1cc(OC(F)F)cc(S(=O)(=O)C(F)(F)F)c1)c1nccnc1-c1ncccn1 (stereo not drawn) [P45, 3-(difluoromethoxy)-N-[1-(3-pyrimidin-2-ylpyrazin-2-yl)ethyl]-5-(trifluoromethylsulfonyl) benzamide]
≥ 80%: mortality at 200 ppm (Myzus persicae [7]) | percent control (mortality, anti-feedant effect or growth inhibition) at 200 ppm (Chilo suppressalis) | percent control (mortality or growth inhibition) at 200 ppm (Plutella xylostella [1]) | percent control (mortality, anti-feedant effect or growth inhibition) at 200 ppm (Spodoptera littoralis)

CC(NC(=O)c1cc(OC(F)(F)F)cc(C2(C#N)CC2)c1)c1nccnc1-c1ncccn1 (stereo not drawn) [P46, 3-(1-cyanocyclopropyl)-N-[1-(3-pyrimidin-2-ylpyrazin-2-yl)ethyl]-5-(trifluoromethoxy) benzamide]
≥ 80%: mortality at 200 ppm (Myzus persicae [7]) | percent control (mortality or growth inhibition) at 200 ppm (Euschistus heros) | percent control (mortality, anti-feedant effect or growth inhibition) at 200 ppm (Chilo suppressalis) | percent control (mortality or growth inhibition) at 200 ppm (Plutella xylostella [1]) | mortality at 24 ppm (Myzus persicae [2]) | percent control (mortality or growth inhibition) at 200 ppm (Diabrotica balteata) | mortality at 12 ppm (Myzus persicae [3]) | percent control (mortality, anti-feedant effect or growth inhibition) at 200 ppm (Spodoptera littoralis)
